In ChEMBL document CHEMBL3608293, “Novel Pyrazine Amide Compounds” (ACS Med Chem Lett, 2015):

target: T1, Epithelial sodium channel subunit alpha (Mus musculus, UniProt Q61180); experiment: Inhibition of ENaC in mouse M1 assessed as effect on trans epithelial electrical resistance by measuring short circuit currents by voltage-clamp based Ussing chamber assay
T1 sequence (Q61180 whole entry): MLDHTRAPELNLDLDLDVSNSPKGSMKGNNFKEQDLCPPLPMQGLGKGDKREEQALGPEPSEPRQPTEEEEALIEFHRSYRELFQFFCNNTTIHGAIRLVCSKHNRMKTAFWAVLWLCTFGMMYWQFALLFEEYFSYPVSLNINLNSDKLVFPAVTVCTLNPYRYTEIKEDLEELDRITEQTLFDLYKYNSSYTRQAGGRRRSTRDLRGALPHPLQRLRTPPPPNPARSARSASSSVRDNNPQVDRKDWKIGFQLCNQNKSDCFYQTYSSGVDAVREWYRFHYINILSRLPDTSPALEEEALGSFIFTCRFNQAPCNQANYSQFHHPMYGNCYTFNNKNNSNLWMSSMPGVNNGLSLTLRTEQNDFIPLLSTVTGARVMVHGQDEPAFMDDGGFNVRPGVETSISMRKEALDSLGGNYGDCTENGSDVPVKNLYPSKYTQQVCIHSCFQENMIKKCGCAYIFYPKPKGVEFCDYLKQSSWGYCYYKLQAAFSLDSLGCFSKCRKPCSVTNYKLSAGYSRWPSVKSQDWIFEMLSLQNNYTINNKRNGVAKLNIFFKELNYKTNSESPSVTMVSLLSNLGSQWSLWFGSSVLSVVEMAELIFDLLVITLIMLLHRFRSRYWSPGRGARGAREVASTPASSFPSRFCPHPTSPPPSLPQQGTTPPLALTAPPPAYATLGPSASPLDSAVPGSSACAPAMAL

| Compound | IC50 [nM] |
| --- | --- |
| COc1ccc(CCC[N@@+]2(C)CCC[C@H](NC(=O)c3nc(Cl)c(N)nc3N)C2)cc1 | 70 |
| COc1ccc(CCC[N+]2(CCCc3ccc(C(=O)NCCCN(C)C)cc3)CCCC(NC(=O)c3nc(Cl)c(N)nc3N)C2)cc1 (stereo unspecified) | 20 |
| Nc1nc(N)c(C(=O)N[C@H]2CCC[N+](CCCc3ccc(OCC(=O)NCCn4ccnc4)cc3)(CCCc3ccc(OCC(=O)NCCn4ccnc4)cc3)C2)nc1Cl | 9 |
| Nc1nc(N)c(C(=O)N[C@H]2CCC[N+](CCCc3ccc(OCC(=O)NCCCO)cc3)(CCCc3ccc(OCC(=O)NCCCO)cc3)C2)nc1Cl | 13 |

The remaining compounds from weak to strong by IC50, led by results:

| IC50 [nM] | Compound |
| --- | --- |
| 6 | COc1ccc(CCC[N+]2(CCCc3ccccc3)CCCC(NC(=O)c3nc(Cl)c(N)nc3N)C2)cc1 (stereo unspecified) |
| 6 | Nc1nc(N)c(C(=O)N[C@H]2CCC[N+](CCCc3ccc(OCC(=O)NCCc4ccccn4)cc3)(CCCc3ccc(OCC(=O)NCCc4ccccn4)cc3)C2)nc1Cl |
